Results as given in PubChem BioAssay AID651630 (Sanford-Burnham Center for Chemical Genomics, 2012).
Calls of active or inactive are those of the source.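 How the source made its calls: active means lipid-stain IC50 at or below a set limit, with nuclear-stain toxicity IC50 at least five times higher; inactive means the rest.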

Tests used:
DAPI = assay: TAG lipid buildup inhibition with viability readout – cell-based, panel, Nile Red and DAPI fluorescence, H9c2, dose response (AID 651630); settings: H9c2 cells, DAPI nuclear fluorescence (cytotoxicity counter-readout), oleic acid;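 further: cells exposed to compound overnight before fixation and staining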
TAG = assay: as above; settings: H9c2 cells, Nile Red TAG fluorescence, oleic acid

For CC(C)C[C@@H](CNC(=O)OC(C)(C)C)NC(=O)c1nc[nH]c1C(=O)N[C@@H](CC(C)C)C(=O)CNC[C@H](CC(C)C)NC(=O)c1nc[nH]c1C(=O)N[C@@H](Cc1c[nH]c2ccccc12)C(=O)OC(C)(C)C, the IC50 cytotoxicity (DAPI nuclear signal decrease) (DAPI; mean of runs) was > 25 µM (inactive), the IC50 cytotoxicity (DAPI nuclear signal decrease) (DAPI; run 1) was over 25 µM and the IC50 cytotoxicity (DAPI nuclear signal decrease) (DAPI; run 2) was over 25 µM. It also gave an IC50 (TAG; mean of runs) of 5.5 µM, an IC50 (TAG; run 1) of 4.49 µM and an IC50 (TAG; run 2) of 6.51 µM.
In the case of CC(C)C[C@H](CO)N(Cc1ccccc1)S(=O)(=O)N(Cc1ccccc1)[C@@H](CO)CC(C)C, the IC50 cytotoxicity (DAPI nuclear signal decrease) (DAPI; mean of runs) is reported as > 25 µM (inactive), the IC50 cytotoxicity (DAPI nuclear signal decrease) (DAPI; run 1) is reported as over 25 µM and the IC50 cytotoxicity (DAPI nuclear signal decrease) (DAPI; run 2) is reported as over 25 µM. The IC50 (TAG; run 1) was 9.64 µM and the IC50 (TAG; run 2) was over 25 µM.
COc1ccc(OC)c(Nc2nc(-c3sc(NC(=O)CC(C)C)nc3C)cs2)c1 was tested, and the IC50 cytotoxicity (DAPI nuclear signal decrease) (DAPI; mean of runs) was > 25 µM (inactive), the IC50 cytotoxicity (DAPI nuclear signal decrease) (DAPI; run 1) was over 25 µM and the IC50 cytotoxicity (DAPI nuclear signal decrease) (DAPI; run 2) was over 25 µM. It also gave an IC50 (TAG; mean of runs) of 14.1 µM, an IC50 (TAG; run 1) of 12.9 µM and an IC50 (TAG; run 2) of 15.3 µM.
In the case of Cc1c(C(=O)OCC(C)C)[nH]c2c1C(=O)CC(c1cccs1)C2 (stereo not given), the IC50 cytotoxicity (DAPI nuclear signal decrease) (DAPI; mean of runs) is reported as > 25 µM (inactive), the IC50 cytotoxicity (DAPI nuclear signal decrease) (DAPI; run 1) is reported as over 25 µM and the IC50 cytotoxicity (DAPI nuclear signal decrease) (DAPI; run 2) is reported as over 25 µM. The IC50 (TAG; mean of runs) was > 25 µM (inactive), the IC50 (TAG; run 1) was over 25 µM and the IC50 (TAG; run 2) was over 25 µM.
CCN(C(=O)COC(=O)c1cc(-c2ccccc2)nc2c1c(C)nn2-c1ccc(C)cc1)C1CCS(=O)(=O)C1 (stereo not given) was tested, and the IC50 cytotoxicity (DAPI nuclear signal decrease) (DAPI; mean of runs) was > 25 µM (inactive), the IC50 cytotoxicity (DAPI nuclear signal decrease) (DAPI; run 1) was over 25 µM and the IC50 cytotoxicity (DAPI nuclear signal decrease) (DAPI; run 2) was over 25 µM. For the same compound, the IC50 (TAG; mean of runs) was > 25 µM (inactive), the IC50 (TAG; run 1) was over 25 µM and the IC50 (TAG; run 2) was over 25 µM.
With CCN(CC)S(=O)(=O)c1ccc(N2CCOCC2)c(NC(=O)c2[nH]c(C)c(C(C)=O)c2C)c1 the IC50 cytotoxicity (DAPI nuclear signal decrease) (DAPI; mean of runs) was > 25 µM (inactive), the IC50 cytotoxicity (DAPI nuclear signal decrease) (DAPI; run 1) was over 25 µM and the IC50 cytotoxicity (DAPI nuclear signal decrease) (DAPI; run 2) was over 25 µM. For the same compound, the IC50 (TAG; mean of runs) was 7 µM, the IC50 (TAG; run 1) was 6.05 µM and the IC50 (TAG; run 2) was 7.95 µM.
In the case of CC(C)(C)N1C(=O)[C@H]2[C@@H](c3ccc(Br)cc3)N3C(=O)N(c4ccc(Br)cc4)C(=O)[C@@]3(Cc3ccccc3)[C@H]2C1=O, the IC50 cytotoxicity (DAPI nuclear signal decrease) (DAPI; mean of runs) is reported as > 25 µM (inactive), the IC50 cytotoxicity (DAPI nuclear signal decrease) (DAPI; run 1) is reported as over 25 µM and the IC50 cytotoxicity (DAPI nuclear signal decrease) (DAPI; run 2) is reported as over 25 µM. The IC50 (TAG; mean of runs) was 17.2 µM (inactive), the IC50 (TAG; run 1) was 18.3 µM and the IC50 (TAG; run 2) was 16 µM.
With CN(C)c1ncnc2c1ncn2C1OC(CO)C(O)C1O (stereo not given) the IC50 cytotoxicity (DAPI nuclear signal decrease) (DAPI; mean of runs) was 12.8 µM (inactive), the IC50 cytotoxicity (DAPI nuclear signal decrease) (DAPI; run 1) was 11 µM and the IC50 cytotoxicity (DAPI nuclear signal decrease) (DAPI; run 2) was 14.5 µM. For the same compound, the IC50 (TAG; mean of runs) was > 25 µM (inactive), the IC50 (TAG; run 1) was over 25 µM and the IC50 (TAG; run 2) was over 25 µM.
For Cc1cccc(NC(=O)C(C)Sc2nc3ccccc3c(=O)n2CCCN2CCOCC2)c1 (stereo not given), the IC50 cytotoxicity (DAPI nuclear signal decrease) (DAPI; mean of runs) was > 25 µM (inactive), the IC50 cytotoxicity (DAPI nuclear signal decrease) (DAPI; run 1) was over 25 µM and the IC50 cytotoxicity (DAPI nuclear signal decrease) (DAPI; run 2) was over 25 µM. The IC50 (TAG; mean of runs) was 20.5 µM (inactive), the IC50 (TAG; run 1) was 20.6 µM and the IC50 (TAG; run 2) was 20.5 µM.
For C=CC[C@@H](CC(=O)N(CCO)Cc1ccccc1)C(=O)N[C@@H](COC(=O)[C@@H](CC=C)Cc1ccc(F)cc1)Cc1ccccc1, the IC50 cytotoxicity (DAPI nuclear signal decrease) (DAPI; mean of runs) was > 25 µM (inactive), the IC50 cytotoxicity (DAPI nuclear signal decrease) (DAPI; run 1) was over 25 µM and the IC50 cytotoxicity (DAPI nuclear signal decrease) (DAPI; run 2) was over 25 µM. The IC50 (TAG; mean of runs) was 9.33 µM, the IC50 (TAG; run 1) was 8.74 µM and the IC50 (TAG; run 2) was 9.91 µM.
In the case of CCCCCc1cc(=O)oc2c(C(CCN(CC)CC)c3ccc(N(C)C)cc3)c(OC)cc(OC)c12 (stereo not given), the IC50 cytotoxicity (DAPI nuclear signal decrease) (DAPI; mean of runs) is reported as > 25 µM (inactive), the IC50 cytotoxicity (DAPI nuclear signal decrease) (DAPI; run 1) is reported as over 25 µM and the IC50 cytotoxicity (DAPI nuclear signal decrease) (DAPI; run 2) is reported as over 25 µM. The IC50 (TAG; run 1) was over 25 µM and the IC50 (TAG; run 2) was 17.5 µM.
In the case of COc1ccc(C(=O)Nc2ccc(Cl)cc2C(=O)NCc2ccco2)cc1, the IC50 cytotoxicity (DAPI nuclear signal decrease) (DAPI; mean of runs) is reported as > 25 µM (inactive), the IC50 cytotoxicity (DAPI nuclear signal decrease) (DAPI; run 1) is reported as over 25 µM and the IC50 cytotoxicity (DAPI nuclear signal decrease) (DAPI; run 2) is reported as over 25 µM. For the same compound, the IC50 (TAG; mean of runs) was 16.9 µM (inactive), the IC50 (TAG; run 1) was 16.2 µM and the IC50 (TAG; run 2) was 17.7 µM.
